The data set in a line: leukogram (white blood cell count) after 14 days' treatment. The class given is in vivo, mice. The method, then: C57/BL6 adult mice were treated for 14 days with daily intraperitoneal injection of saline solution or peptides at a dose of 3 nmol/g (6-10 animals per experimental group). The animals were maintained in an enclosure at 25 ± 2 °C with an alternating light/dark cycle of 12 hours and had free access to water and food in the form of pellets (standard diet).
The blood, collected through cardiac puncture, was analysed with a laser counter (ADVIA 120, Siemens) using specific software for the murine species. From each sample a blood smear was prepared, stained with the May Grünwald-Giemsa method, and used for the morphological analysis of the leukocytes, the red blood cells and the platelet estimate. After the automatic counting of the cells and the preparation of the smear, all the samples were centrifuged and the plasma was transferred into separate test tubes. The analysis of the plasma samples was performed through automatic spectrophotometer (ILAB-300, Instrumentation Laboratory). All the results were compared with the values provided by the company Charles River for mice of the same strain and age.
Except for the basophils and eosinophils, the total count and white blood cell (WBC) differential is lower with respect to the range values in all the animals treated. However, we noticed that the reference range values provided by the company Charles River are particularly high with respect to other values provided for other control groups and in other scientific articles in which the same animal strain is analysed. Justification for these differences found is provided by the pre-analytical factors used by Charles River in determining the different reference ranges (such as the method used, the type of sampling used, etc.). Despite this, the analyses of the data performed both individually and by examining the mean and median values in the different groups, show some differences in the values referring to mice treated with the active peptide with respect to the control mice (Table 2).
The following Table 2 illustrates the results of the white blood cell count. The reference values are provided by Charles River for C57BL mice of 56-70 days.

Setting [1] is: individual animal, 14 days, daily intraperitoneal 3 nmol/g.

SMILES strings stand for the structures. Values joined by “and” are separate entries in the source; they are usually repeats but may differ in a detail not shown here. Equal entries are not always repeated. Peptide text beside a SMILES is read from it.

This note sets out measurements from patent EP3727588B1, “ACTIVATOR PEPTIDES OF THE ENZYME ADAM 10 AND RELATED USES IN THE TREATMENT OF ALZHEIMER'S DISEASE” (UNIVERSITA' DEGLI STUDI DI MILANO, priority 2017, dated 2019).

Regarding `N=C(N)NCCC[C@H](NC(=O)CNC(=O)[C@@H](N)Cc1ccc(O)cc1)C(=O)N[C@@H](CCCCN)C(=O)N[C@@H](CCCCN)C(=O)N[C@@H](CCCNC(=N)N)C(=O)N[C@@H](CCCNC(=N)N)C(=O)N[C@@H](CCC(N)=O)C(=O)N[C@@H](CCCNC(=N)N)C(=O)N[C@@H](CCCNC(=N)N)C(=O)N[C@@H](CCCNC(=N)N)C(=O)NCC(=O)NCC(=O)N[C@@H](CO)C(=O)NCC(=O)N[C@@H](CCC(N)=O)C(=O)N1CCC[C@H]1C(=O)N1CCC[C@H]1C(=O)N[C@@H](CCCNC(=N)N)C(=O)N[C@@H](CCC(N)=O)C(=O)N[C@@H](CCCNC(=N)N)C(=O)N1CCC[C@H]1C(=O)N[C@@H](CCCNC(=N)N)C(=O)NCC(=O)O` [PEP3] (H-YGRKKRRQRRRGGSGQPPRQRPRG-OH), the “immune / allergic reactions inferred from leukogram” value (14 days' treatment, said not biologically significant) was “leads to the development of specific immunity and to the possibility of developing possible allergic/hypergic reactions”. For the setting “group mean”, the Basophils is 10 µL⁻¹, the Eosinophils was determined as 90 µL⁻¹, the Lymphocytes stood at 4460 µL⁻¹ and the Monocytes was determined as 200 µL⁻¹. For the same compound, under “group mean”, the Neutrophils is 530 µL⁻¹ and the White blood cells is 5290 µL⁻¹. In addition, where the note is “group median”, the Basophils was 0 µL⁻¹, the Eosinophils entry is “(-0.08). x10^3/µL”, the Lymphocytes result was “(-4.32). x10^3/µL” and the Monocytes entry is “(-0.23). x10^3/µL”. Further, where the note is “group median”, the Neutrophils entry is on record as “(-0.54). x10^3/µL” and the White blood cells entry is reported as “(-5.21). x10^3/µL”. Under setting [1], the Basophils was 0 µL⁻¹ and 40 µL⁻¹; the Eosinophils is 140 µL⁻¹ and 60 µL⁻¹ and 90 µL⁻¹ and 40 µL⁻¹ and 120 µL⁻¹ and 70 µL⁻¹; the Lymphocytes is 5740 µL⁻¹ and 2650 µL⁻¹ and 3820 µL⁻¹ and 3720 µL⁻¹ and 4810 µL⁻¹ and 6010 µL⁻¹; the Monocytes is 270 µL⁻¹ and 60 µL⁻¹ and 180 µL⁻¹ and 130 µL⁻¹ and 290 µL⁻¹ and 280 µL⁻¹. For the same compound, under setting [1], the Neutrophils is 680 µL⁻¹ and 340 µL⁻¹ and 460 µL⁻¹ and 440 µL⁻¹ and 650 µL⁻¹ and 630 µL⁻¹; the White blood cells was 6830 µL⁻¹ and 3120 µL⁻¹ and 4550 µL⁻¹ and 4380 µL⁻¹ and 5870 µL⁻¹ and 6990 µL⁻¹.
